Experiments:
[1] = tested on: ACAT; test: ACAT inhibiting activity test using HepG2 cells; type: cell-based; details: 10⁻⁶M test compound, human cultured cell line HepG2, [14C]-oleic acid incorporation into cholesterol ester; 1 µM
Experimental: The ACAT inhibiting activity test using cells of human cultured cell line HepG2 was carried out in accordance with the method of Goldstein et al as described in Methods Enzymology, 98, 241, 1983. 5 x 10⁵ cells/well of human cultured cell line HepG2 were pre-cultured in 5% LPDS (rabbit lipoprotein-deficient serum)-DMEM (Dulbecco Modified Eagle Medium) overnight, and the medium was changed for a fresh 5% LPDS-DMEM (1 mℓ/well). To the medium having the cells were added 3 µℓ, as a whole, of cholesterol and 25-OH-cholesterol as dissolved in ethanol (with the final concentration being 10 µg/mℓ and 5 µg/mℓ, respectively) and 10 µℓ of a test compound (shown in Table 3 below) as dissolved in methanol (with the final concentration being 10⁻⁶M). The cells were cultured for 4 hours. Then, 10 µℓ (0.42 µCi/0.1 µmol/well) of [¹⁴C]-oleic acid-BSA (bovine serum albumin) complex was added to the medium, and the cells were cultured for further 2 hours. After the cultured cells were washed, the lipid of the cells was extracted with 0.5 mℓ/well of hexane/isopropanol (3/2) containing [3H]-cholesterol oleic acid 2000 dpm. The extract was dried to a solid under reduced pressure and the solid was fractionated by silica gel thin layer chromatography using a developing solvent of petroleum ether/diethyl ether/acetic acid (170/30/1) whereupon the radioactivity of the spot of the cholesterol ester was measured with a liquid scintillation counter. Subtracting the radioactivity of the blank test to which cholesterol and 25-OH-cholesterol were not added from the radioactivity as measured above gives the radioactivity of the test compound. The ACAT inhibiting activity of the test compound was calculated from the following equation, based on the radioactivity of the control group as obtained in the same manner as above without using the test compound. ACAT Inhibition (%) = {[Radioactivity of Control Group) - (Radioactivity of Test Compound)]/(Radioactivity of Control Group)} x 100

[2] = tested on: male ddy strain mice; test: Test for acute toxicity (minimum lethal dose, oral); type: in vivo; details: orally administered, mortality observed seven days after administration
Experimental: Groups of 3 male ddy strain mice weighing 20±1g were used. The test compounds were orally administered. Seven days after administration, the mortality was observed and the minimum lethal dose (MLD) was determined.

Structure (SMILES) | Percentage of ACAT Inhibition [1] | Acute Toxicity (MLD) [2]
Cc1ccc2c(c1)C(CNC(=O)Nc1c(C(C)C)cccc1C(C)C)c1ccccc1CO2 (centres unmarked) [Compound 1, N-(2,6-diisopropylphenyl)-N'-(2-methyl-6,11-dihydrodibenz[b,e]oxepin-11-ylmethyl)urea] | 99% | 
CC(C)c1cccc(C(C)C)c1NC(=O)NCC1c2ccccc2COc2ccc(Br)cc21 (centres unmarked) [Compound 2, N-(2,6-diisopropylphenyl)-N'-(2-bromo-6,11-dihydrodibenz[b,e]oxepin-11-ylmethyl)urea] | 98% | >300 mg/kg
Cc1cc2c(c(C)c1Br)C(CNC(=O)Nc1c(C(C)C)cccc1C(C)C)c1ccccc1CO2 (centres unmarked) [Compound 3, N-(2,6-diisopropylphenyl)-N'-(2-bromo-1,3-dimethyl-6,11-dihydrobenz[b,e]oxepin-11-ylmethyl)urea] | 97% | 
CC(C)c1cccc(C(C)C)c1NC(=O)NC=C1c2ccccc2COc2ccccc21 [Compound 4] | 93% | 
CC(C)c1cccc(C(C)C)c1NC(=O)NC=C1c2ccccc2CCc2ccccc21 [Compound 5] | 94% | >300 mg/kg
CC(C)c1cccc(C(C)C)c1NC(=O)OCC1c2ccccc2COc2ccccc21 (centres unmarked) [Compound 6, (6,11-Dihydrodibenz[b,e]oxepin-11-ylmethyl)-(2,6-diisopropylphenyl)carbamate] | 40% | 

Source: patent publication EP0588608A2, “Tricyclic compounds and pharmaceutical compositions containing them” (KYOWA HAKKO KOGYO CO., LTD., priority 1992, dated 1994)
